Peptide text beside a SMILES is read from it.

This assay deals with S. aureus ATCC 43300. It is filed as cell-based, Staphylococcus aureus. To be noted: microtiter, serial 2-fold dilutions, 37°C, 16∼20 h, triplicate; – = no activity. On the procedure: The minimal inhibitory concentration (MIC) was evaluated by a microtiter plate assay ([Wiegand et al., 2008]). Serial 2-fold dilutions of test peptides were placed into a 96-well plate containing identical bacterial inoculum and incubated at 37°C for 16∼20 h. Vancomycin was used as antibiotic control. The MIC value was defined as the lowest peptide concentration where no visible growth occurred. All tests were made in triplicate.
Take `CC[C@H](C)[C@@H]1NC(=O)[C@@H]2CSSC[C@@H](C(=O)N[C@@H](CCCNC(=N)N)C(=O)N[C@@H](CCCCN)C(=O)O)NC(=O)[C@H](CC(N)=O)NC(=O)[C@@H]3CSSC[C@H](NC(=O)[C@H](C)NC(=O)[C@H](C)NC(=O)[C@H](Cc4c[nH]cn4)NC(=O)CNC(=O)[C@H](C(C)C)NC(=O)[C@H](CCCCN)NC(=O)[C@H](Cc4ccccc4)NC(=O)[C@H](CCCCN)NC(=O)[C@H](CO)NC(=O)[C@H](CC(C)C)NC(=O)[C@H](CC(C)C)NC(=O)[C@H](CC(=O)O)NC(=O)[C@@H](NC(=O)[C@@H](NC(=O)[C@H](C)N)[C@@H](C)O)CSSC[C@H](NC(=O)[C@H](Cc4c[nH]c5ccccc45)NC(=O)CNC(=O)CNC(=O)[C@H](CCCNC(=N)N)NC(=O)[C@H](CCCCN)NC(=O)CNC(=O)[C@H](CCCNC(=N)N)NC(=O)[C@H](C)NC1=O)C(=O)N[C@@H](CC(=O)O)C(=O)N[C@@H](CCCCN)C(=O)N[C@@H](CCCNC(=N)N)C(=O)N[C@@H](C)C(=O)N[C@@H](C(C)C)C(=O)N3)C(=O)N[C@@H](C)C(=O)N[C@@H](C)C(=O)N[C@@H](Cc1c[nH]cn1)C(=O)N2` [ID8] (HELM PEPTIDE1{A.T.C.D.L.L.S.K.F.K.V.G.H.A.A.C.A.A.H.C.I.A.R.G.K.R.G.G.W.C.D.K.R.A.V.C.N.C.R.K}$PEPTIDE1,PEPTIDE1,3:R3-30:R3|PEPTIDE1,PEPTIDE1,16:R3-36:R3|PEPTIDE1,PEPTIDE1,20:R3-38:R3$$$V2.0; N-terminus and C-terminus assumed; bridges inferred): the “A1 (MIC against S. aureus ATCC 43300)” value turned out to be 32 µg/mL.

In the case of `CC[C@H](C)[C@@H]1NC(=O)[C@@H]2CSSC[C@@H](C(=O)N[C@@H](CCCNC(=N)N)C(=O)N[C@@H](CCCCN)C(=O)O)NC(=O)[C@H](CC(N)=O)NC(=O)[C@@H]3CSSC[C@H](NC(=O)[C@H](C)NC(=O)[C@H](C)NC(=O)[C@H](Cc4c[nH]cn4)NC(=O)CNC(=O)[C@H](C(C)C)NC(=O)[C@H](CCCCN)NC(=O)[C@H](Cc4ccccc4)NC(=O)[C@@H]4CCCN4C(=O)[C@H](CO)NC(=O)[C@H]([C@@H](C)CC)NC(=O)[C@H](CC(C)C)NC(=O)[C@H](CC(=O)O)NC(=O)[C@@H](NC(=O)[C@@H](NC(=O)[C@H](C)N)[C@@H](C)O)CSSC[C@H](NC(=O)[C@H](Cc4c[nH]c5ccccc45)NC(=O)CNC(=O)CNC(=O)[C@H](CCCNC(=N)N)NC(=O)[C@H](CCCCN)NC(=O)CNC(=O)[C@H](CCCNC(=N)N)NC(=O)[C@H](C)NC1=O)C(=O)N[C@@H](CC(=O)O)C(=O)N[C@@H](CCCCN)C(=O)N[C@@H](CCCNC(=N)N)C(=O)N[C@@H](C)C(=O)N[C@@H](C(C)C)C(=O)N3)C(=O)N[C@@H](C)C(=O)N[C@@H](C)C(=O)N[C@@H](Cc1c[nH]cn1)C(=O)N2` [ID5] (HELM PEPTIDE1{A.T.C.D.L.I.S.P.F.K.V.G.H.A.A.C.A.A.H.C.I.A.R.G.K.R.G.G.W.C.D.K.R.A.V.C.N.C.R.K}$PEPTIDE1,PEPTIDE1,3:R3-30:R3|PEPTIDE1,PEPTIDE1,16:R3-36:R3|PEPTIDE1,PEPTIDE1,20:R3-38:R3$$$V2.0; N-terminus and C-terminus assumed; bridges inferred), the “A1 (MIC against S. aureus ATCC 43300)” value is 16 µg/mL.

With `CC[C@H](C)[C@@H]1NC(=O)[C@@H]2CSSC[C@@H](C(=O)N[C@@H](CCCNC(=N)N)C(=O)N[C@@H](CCCCN)C(=O)O)NC(=O)[C@H](CC(N)=O)NC(=O)[C@@H]3CSSC[C@H](NC(=O)[C@H](C)NC(=O)[C@H](C)NC(=O)[C@H](Cc4c[nH]cn4)NC(=O)CNC(=O)[C@H](C(C)C)NC(=O)[C@H](CCCCN)NC(=O)[C@H](Cc4ccccc4)NC(=O)[C@@H]4CCCN4C(=O)[C@H](CO)NC(=O)[C@H](CC(C)C)NC(=O)[C@H](CC(C)C)NC(=O)[C@H](CC(=O)O)NC(=O)[C@@H](NC(=O)[C@@H](NC(=O)[C@H](C)N)[C@@H](C)O)CSSC[C@H](NC(=O)[C@H](Cc4c[nH]c5ccccc45)NC(=O)CNC(=O)CNC(=O)[C@H](CCCNC(=N)N)NC(=O)[C@H](CCCCN)NC(=O)CNC(=O)[C@H](CCCNC(=N)N)NC(=O)[C@H](C)NC1=O)C(=O)N[C@@H](CC(N)=O)C(=O)N[C@@H](CCCCN)C(=O)N[C@@H](CCCNC(=N)N)C(=O)N[C@@H](C)C(=O)N[C@@H](C(C)C)C(=O)N3)C(=O)N[C@@H](C)C(=O)N[C@@H](C)C(=O)N[C@@H](Cc1c[nH]cn1)C(=O)N2` [ID10] (HELM PEPTIDE1{A.T.C.D.L.L.S.P.F.K.V.G.H.A.A.C.A.A.H.C.I.A.R.G.K.R.G.G.W.C.N.K.R.A.V.C.N.C.R.K}$PEPTIDE1,PEPTIDE1,3:R3-30:R3|PEPTIDE1,PEPTIDE1,16:R3-36:R3|PEPTIDE1,PEPTIDE1,20:R3-38:R3$$$V2.0; N-terminus and C-terminus assumed; bridges inferred), the “A1 (MIC against S. aureus ATCC 43300)” value is 16 µg/mL.

For `CC[C@H](C)[C@@H]1NC(=O)[C@@H]2CSSC[C@@H](C(=O)N[C@@H](CCCNC(=N)N)C(=O)N[C@@H](CCCCN)C(=O)O)NC(=O)[C@H](CC(N)=O)NC(=O)[C@@H]3CSSC[C@H](NC(=O)[C@H](C)NC(=O)[C@H](C)NC(=O)[C@H](Cc4c[nH]cn4)NC(=O)CNC(=O)[C@H](C(C)C)NC(=O)[C@H](CCCCN)NC(=O)[C@H](Cc4ccccc4)NC(=O)[C@@H]4CCCN4C(=O)[C@H](CO)NC(=O)[C@H](CC(C)C)NC(=O)[C@H]([C@@H](C)CC)NC(=O)[C@H](CC(=O)O)NC(=O)[C@@H](NC(=O)[C@@H](NC(=O)[C@H](C)N)[C@@H](C)O)CSSC[C@H](NC(=O)[C@H](Cc4c[nH]c5ccccc45)NC(=O)CNC(=O)CNC(=O)[C@H](CCCNC(=N)N)NC(=O)[C@H](CCCCN)NC(=O)CNC(=O)[C@H](CCCNC(=N)N)NC(=O)[C@H](C)NC1=O)C(=O)N[C@@H](CC(=O)O)C(=O)N[C@@H](CCCCN)C(=O)N[C@@H](CCCNC(=N)N)C(=O)N[C@@H](C)C(=O)N[C@@H](C(C)C)C(=O)N3)C(=O)N[C@@H](C)C(=O)N[C@@H](C)C(=O)N[C@@H](Cc1c[nH]cn1)C(=O)N2` [ID4] (HELM PEPTIDE1{A.T.C.D.I.L.S.P.F.K.V.G.H.A.A.C.A.A.H.C.I.A.R.G.K.R.G.G.W.C.D.K.R.A.V.C.N.C.R.K}$PEPTIDE1,PEPTIDE1,3:R3-30:R3|PEPTIDE1,PEPTIDE1,16:R3-36:R3|PEPTIDE1,PEPTIDE1,20:R3-38:R3$$$V2.0; N-terminus and C-terminus assumed; bridges inferred), the “A1 (MIC against S. aureus ATCC 43300)” value amounted to 32 µg/mL.

Take `CC[C@H](C)[C@@H]1NC(=O)[C@@H]2CSSC[C@@H](C(=O)N[C@@H](CCCNC(=N)N)C(=O)N[C@@H](CC(N)=O)C(=O)O)NC(=O)[C@H](CC(N)=O)NC(=O)[C@@H]3CSSC[C@H](NC(=O)[C@H](C)NC(=O)[C@H](C)NC(=O)[C@H](Cc4c[nH]cn4)NC(=O)CNC(=O)[C@H](C(C)C)NC(=O)[C@H](CCCCN)NC(=O)[C@H](Cc4ccccc4)NC(=O)[C@@H]4CCCN4C(=O)[C@H](CO)NC(=O)[C@H](CC(C)C)NC(=O)[C@H](CC(C)C)NC(=O)[C@H](CC(=O)O)NC(=O)[C@@H](NC(=O)[C@@H](NC(=O)[C@H](C)N)[C@@H](C)O)CSSC[C@H](NC(=O)[C@H](Cc4c[nH]c5ccccc45)NC(=O)CNC(=O)CNC(=O)[C@H](CCCNC(=N)N)NC(=O)[C@H](CCCCN)NC(=O)CNC(=O)[C@H](CCCNC(=N)N)NC(=O)[C@H](C)NC1=O)C(=O)N[C@@H](CC(=O)O)C(=O)NCC(=O)N[C@@H](CCCNC(=N)N)C(=O)N[C@@H](C)C(=O)N[C@@H](C(C)C)C(=O)N3)C(=O)N[C@@H](C)C(=O)N[C@@H](C)C(=O)N[C@@H](Cc1c[nH]cn1)C(=O)N2` [ID20] (HELM PEPTIDE1{A.T.C.D.L.L.S.P.F.K.V.G.H.A.A.C.A.A.H.C.I.A.R.G.K.R.G.G.W.C.D.G.R.A.V.C.N.C.R.N}$PEPTIDE1,PEPTIDE1,3:R3-30:R3|PEPTIDE1,PEPTIDE1,16:R3-36:R3|PEPTIDE1,PEPTIDE1,20:R3-38:R3$$$V2.0; N-terminus and C-terminus assumed; bridges inferred): the “A1 (MIC against S. aureus ATCC 43300)” value came to 16 µg/mL.

As for `CC[C@H](C)[C@@H]1NC(=O)[C@@H]2CSSC[C@@H](C(=O)N[C@@H](CCCNC(=N)N)C(=O)N[C@@H](CCCCN)C(=O)O)NC(=O)[C@H](CC(N)=O)NC(=O)[C@@H]3CSSC[C@H](NC(=O)[C@H](C)NC(=O)[C@H](C)NC(=O)[C@H](Cc4c[nH]cn4)NC(=O)CNC(=O)[C@H](C(C)C)NC(=O)CNC(=O)[C@H](Cc4ccccc4)NC(=O)[C@@H]4CCCN4C(=O)[C@H](CO)NC(=O)[C@H](CC(C)C)NC(=O)[C@H](CC(C)C)NC(=O)[C@H](CC(=O)O)NC(=O)[C@@H](NC(=O)[C@@H](NC(=O)[C@H](C)N)[C@@H](C)O)CSSC[C@H](NC(=O)[C@H](Cc4c[nH]c5ccccc45)NC(=O)CNC(=O)CNC(=O)[C@H](CCCNC(=N)N)NC(=O)[C@H](CCCCN)NC(=O)CNC(=O)[C@H](CCCNC(=N)N)NC(=O)[C@H](C)NC1=O)C(=O)N[C@@H](CC(=O)O)C(=O)N[C@@H](CCCCN)C(=O)N[C@@H](CCCNC(=N)N)C(=O)N[C@@H](C)C(=O)N[C@@H](C(C)C)C(=O)N3)C(=O)N[C@@H](C)C(=O)N[C@@H](C)C(=O)N[C@@H](Cc1c[nH]cn1)C(=O)N2` [ID11] (HELM PEPTIDE1{A.T.C.D.L.L.S.P.F.G.V.G.H.A.A.C.A.A.H.C.I.A.R.G.K.R.G.G.W.C.D.K.R.A.V.C.N.C.R.K}$PEPTIDE1,PEPTIDE1,3:R3-30:R3|PEPTIDE1,PEPTIDE1,16:R3-36:R3|PEPTIDE1,PEPTIDE1,20:R3-38:R3$$$V2.0; N-terminus and C-terminus assumed; bridges inferred), the “A1 (MIC against S. aureus ATCC 43300)” value came out at 16 µg/mL.

Source of the values: PMC7291858, “An Enhanced Variant Designed From DLP4 Cationic Peptide Against Staphylococcus aureus CVCC 546” (Frontiers in Microbiology, 2020).
